Laboratory results taken from US7968601B2, “Adamantyl acetamides as 11-β hydroxysteroid dehydrogenase inhibitors” (Janssen Pharmaceutica N.V., priority 2002, dated 2011).

Assays:
[1] = target: T1, 11b-HSD2 (Homo sapiens, UniProt P80365); assay: Enzymatic assay, 11b-HSD2 dependent dehydrogenase activity; assay type: biochemical; details: 11b-HSD2 dehydrogenase activity, pIC50 scored 1-3, read-out: [C1] HSD2 prot Dehydro Score
T1 sequence (P80365 1-405): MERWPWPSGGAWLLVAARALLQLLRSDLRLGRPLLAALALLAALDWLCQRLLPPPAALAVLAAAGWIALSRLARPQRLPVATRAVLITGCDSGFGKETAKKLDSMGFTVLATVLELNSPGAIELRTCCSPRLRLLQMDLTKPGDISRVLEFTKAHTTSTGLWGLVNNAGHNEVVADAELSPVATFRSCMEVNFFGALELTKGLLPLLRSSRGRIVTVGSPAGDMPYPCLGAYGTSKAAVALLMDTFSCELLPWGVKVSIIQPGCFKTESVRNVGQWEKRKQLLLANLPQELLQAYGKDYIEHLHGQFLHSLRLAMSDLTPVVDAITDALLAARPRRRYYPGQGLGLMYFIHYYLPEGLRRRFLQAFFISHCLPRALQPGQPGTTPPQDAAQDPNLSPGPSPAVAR
Description: The effects on the 11b-HSD2 dependent dehydrogenase activity was studied in a reaction mixture containing 0.1M sodium phosphate buffer pH 7.5, 300 μM NAD, 100 nM cortisol (of which 2 nM is 3H-radio labelled), 1 μl drug and/or solvent and 2.5 μg recombinant protein in a final volume of 100 μl.
(§1) All incubations were performed for 45 min at 37 C in a water bath. The reaction was stopped by adding 100 μl acetonitrile containing 20 μg corticosterone as internal standard. After centrifugation, the product formation was analysed in the supernatant by HPLC on a Hypersyl BDS-C18 column using 0.05 mM ammonium acetate/methanol (50/50) as solvent. In all of the aforementioned assays, the drugs to be tested were taken from a stock solution and tested at a final concentration ranging from […] to 3.10^−9M. From the thus obtained dose response curves, the pIC50 value was calculated and scored as follows; Score 1=pIC50 value<5, Score 2=pIC50 value in the range of 5 to 6, Score 3=pIC50 value>6. (in this table NT stands for Not Tested).

[2] = target: T2, 11b-HSD1 (Mus musculus, UniProt P50172); assay: Cellular assay, 11b-HSD1 activity in differentiated 3T3-L1 cells; assay type: cell-based; details: 4 hour pre-incubation, pIC50 scored 1-3, read-out: [C2] HSD1 cellular 3T3-L1 Score
T2 construct: endogenous in cells; host or cells: 3T3-L1 (ATCC-CL-173), differentiated into adipocytes
Description: The effects on 11b-HSD1 activity was measured in differentiated 3T3-L1 cells and rat hepatocytes.
Mouse fibroblast 3T3-L1 cells (ATCC-CL-173) were seeded at a density of 16500 cells/ml in 12 well plates and grown for 7 days in DMEM medium (supplemented with 10% heat inactivated foetal calf serum, 2 mM glutamine and 25 mg gentamycin) at 37 C in a humidified 5% CO2 atmosphere. Medium was refreshed twice a week. Fibroblasts were differentiated into adipocytes at 37 C in a 5% CO2 humidified atmosphere in growth medium containing 2 μg/ml insulin, 55 μg/ml IBMX and 39.2 μg/ml dexamethasone.
Following a 4 hour pre-incubation with test compound, 0.5 μCi ^3H-cortisone or dehydrocorticosterone, was added to the cultures. One hour later, the medium was extracted on Extrelut^3-columns with 15 ml diethyl ether and the extract was analysed by HPLC as described above.
(§2) As for the enzymatic assays, the compounds to be tested were taken from a stock solution and tested at a final concentration ranging from […] to 3.10^−9M. From the thus obtained dose response curves, the pIC50 value was calculated and scored as follows; Score 1=pIC50 value<5, Score 2=pIC50 value in the range of 5 to 6, Score 3=pIC50 value>6. (in this table NT stands for Not Tested).

[3] = target: T1, 11b-HSD2; assay: Cellular assay, 11b-HSD2 activity in HepG2 cells; assay type: cell-based; set-up: endogenous in cells; host or cells: HepG2 (ATCC HB-8065); details: 4 hour pre-incubation, pIC50 scored 1-3, read-out: [C2] HSD2 cellular HepG2 Score
Description: The effects on 11b-HSD2 activity was studied in HepG2 and LCC-PK1-cells HepG2-cells (ATCC HB-8065) were seeded in 12 well plates at a density of 100,000 cells/ml and grown at 37 C in a humidified 5% CO2 atmosphere in MEM-Rega-3 medium supplemented with 10% heat inactivated foetal calf serum, 2 mM L-glutamine and sodium bicarbonate). Medium was refreshed twice a week. Pig kidney cells (LCC-PK1, ATCC CRL-1392) were seeded at a density of 150,000 cells/ml in 12 well plates and grown at 37 C in a humidified 5% CO2 atmosphere in Medium 199 supplemented with Earls modified salt solution, 100 U/ml penicillin, 100 μg/ml streptomycin and 10% foetal calf serum. Medium was refreshed twice a week. Twenty four hours prior to the onset of the experiment, medium was changed by medium containing 10% charcoal stripped foetal calf serum.
Following a 4 hour pre-incubation with test compound, 0.5 μCi ^3H-cortisol or corticosterone, was added to the cultures. One hour later, the medium was extracted on Extrelut^3-columns with 15 ml diethyl ether and the extract was analysed by HPLC as described above.
as §2

[4] = target: 11b-HSD1 (Homo sapiens, UniProt P28845); assay: Enzymatic assay, 11b-HSD1 reductase activity (conversion of cortisone into cortisol); assay type: biochemical; details: pIC50 scored 1-3, read-out: [C1] HSD1-prot Reduct Score
Description: The effects of compounds on 11b-HSD1 dependent conversion of cortisone into cortisol (reductase activity) was studied in a reaction mixture containing 30 mM Tris-HCl buffer pH 7.2, 180 μM NADPH, 1 mM EDTA, 2 μM cortisone, 1 μl drug and/or solvent and 11 μg recombinant protein in a final volume of 100 μl.
as §1

11b-HSD1 (Homo sapiens, UniProt P28845), sequence (P28845 whole entry): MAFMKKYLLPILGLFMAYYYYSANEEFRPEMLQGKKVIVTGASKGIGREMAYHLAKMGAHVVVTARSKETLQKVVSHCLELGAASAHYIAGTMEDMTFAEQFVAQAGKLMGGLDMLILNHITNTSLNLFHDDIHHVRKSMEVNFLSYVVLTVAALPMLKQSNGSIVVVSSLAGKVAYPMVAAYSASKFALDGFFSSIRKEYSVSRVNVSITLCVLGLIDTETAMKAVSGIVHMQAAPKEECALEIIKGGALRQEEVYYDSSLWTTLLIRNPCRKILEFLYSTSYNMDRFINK
T2 sequence (P50172 whole entry): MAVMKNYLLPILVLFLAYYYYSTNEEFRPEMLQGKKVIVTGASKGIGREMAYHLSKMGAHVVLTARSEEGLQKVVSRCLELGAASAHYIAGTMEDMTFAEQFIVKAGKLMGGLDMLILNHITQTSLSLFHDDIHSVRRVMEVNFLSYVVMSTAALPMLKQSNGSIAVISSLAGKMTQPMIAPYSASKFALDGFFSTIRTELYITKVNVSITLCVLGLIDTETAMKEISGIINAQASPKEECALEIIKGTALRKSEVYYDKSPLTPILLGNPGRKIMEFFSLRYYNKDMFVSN

| SMILES | IC50 [1] [µM] | IC50 [2] [µM] | IC50 [3] [µM] | IC50 [4] [µM] |
| --- | --- | --- | --- | --- |
| CC1=C(C(=O)NC2C3CC4CC(C3)CC2C4)Cc2ccccc21 (stereo not shown) [Compound 141] | > 10 | < 1 | > 10 | < 1 |
| Cc1cccc(C(C)(C)C(=O)NC2C3CC4CC(C3)CC2C4)c1 (stereo not shown) [Compound 89] | > 10 | < 1 | > 10 | < 1 |
| CC(C)(C(=O)NC1C2CC3CC(C2)CC1C3)c1cccc(/C=C/C(=O)OCc2ccccc2)c1 (stereo not shown) [Compound 198] | > 10 | < 1 | > 10 | > 10 |
| O=C(NC1C2CC3CC(C2)CC1C3)C1(c2ccncc2)CCCC1 (stereo not shown) [Compound 127] | > 10 | < 1 | > 10 | > 10 |
| CC(C)(C(=O)NC1C2CC3CC(C2)CC1C3)c1cccnc1 (stereo not shown) [Compound 128] | > 10 | < 1 | > 10 | < 1 |
| CC(C)(C(=O)NC1C2CC3CC(C2)CC1C3)c1ccsc1 (stereo not shown) [Compound 133] | > 10 | < 1 | > 10 | > 10 |
| COC(C(=O)NC1C2CC3CC(C2)CC1C3)c1ccccc1 (stereo not shown) [Compound 43] | > 10 | 1 to 10 | > 10 | < 1 |
| O=C(NC1C2CC3CC(C2)CC1C3)C1CCSc2ccccc21 (stereo not shown) [Compound 182] | > 10 | < 1 | > 10 | < 1 |
| CC(C)(C(=O)NC1C2CCCC1CCC2)c1ccccc1 (stereo not shown) [Compound 48] | > 10 | < 1 | > 10 | > 10 |
| CC(C)(C(=O)NC1C2CC3CC(C2)CC1C3)c1cccc(C(F)(F)F)c1 (stereo not shown) [Compound 85] | > 10 | < 1 | > 10 | > 10 |
| CN(C)c1cccc(C(C)(C)C(=O)NC2C3CC4CC(C3)CC2C4)c1 (stereo not shown) [Compound 78] | 1 to 10 | < 1 | > 10 | < 1 |
| COc1ccc(C(C)(C)C(=O)NC2C3CC4CC(C3)CC2C4)cc1 (stereo not shown) [Compound 47] | > 10 | < 1 | > 10 | < 1 |
| CC(C)(C(=O)NC1C2CC3CC(C2)CC1C3)c1ccc(F)cc1F (stereo not shown) [Compound 87] | > 10 | < 1 | > 10 | > 10 |
| Cc1cc(CCC(=O)O)cc(C(C)(C)C(=O)N[C@H]2[C@@H]3CC4C[C@H]2C[C@](F)(C4)C3)c1 [Compound 254] | > 10 | < 1 | > 10 | > 10 |
| CC(C)(C(=O)NC1C2CC3CC(C2)CC1(O)C3)c1ccccc1 (stereo not shown) [Compound 91] | > 10 | < 1 | > 10 | > 10 |
| COc1cccc(C(C)(C)C(=O)NC2CCC3CCCC2C3)c1 (stereo not shown) [Compound 74] | > 10 | < 1 | > 10 | < 1 |
